These results are taken from patent US20240228459A1 (Boundless Bio, Inc., priority 2022, published 2024).

The structures appear in SMILES notation.

For one test, the target named is Wee1 (Homo sapiens, UniProt P30291). In words: Wee1 pCDK1 activity (known assay). Type of test: cell-based. The protocol: (§1) The Wee1 pCDK1 and PLK1 activities were determined using known assays.
The next test has as its target PLK1 (Homo sapiens, UniProt P53350). In words: PLK1 activity (known assay). Type of test: biochemical. The protocol:
as §1

Chain of PLK1 (P53350 whole entry, species assumed): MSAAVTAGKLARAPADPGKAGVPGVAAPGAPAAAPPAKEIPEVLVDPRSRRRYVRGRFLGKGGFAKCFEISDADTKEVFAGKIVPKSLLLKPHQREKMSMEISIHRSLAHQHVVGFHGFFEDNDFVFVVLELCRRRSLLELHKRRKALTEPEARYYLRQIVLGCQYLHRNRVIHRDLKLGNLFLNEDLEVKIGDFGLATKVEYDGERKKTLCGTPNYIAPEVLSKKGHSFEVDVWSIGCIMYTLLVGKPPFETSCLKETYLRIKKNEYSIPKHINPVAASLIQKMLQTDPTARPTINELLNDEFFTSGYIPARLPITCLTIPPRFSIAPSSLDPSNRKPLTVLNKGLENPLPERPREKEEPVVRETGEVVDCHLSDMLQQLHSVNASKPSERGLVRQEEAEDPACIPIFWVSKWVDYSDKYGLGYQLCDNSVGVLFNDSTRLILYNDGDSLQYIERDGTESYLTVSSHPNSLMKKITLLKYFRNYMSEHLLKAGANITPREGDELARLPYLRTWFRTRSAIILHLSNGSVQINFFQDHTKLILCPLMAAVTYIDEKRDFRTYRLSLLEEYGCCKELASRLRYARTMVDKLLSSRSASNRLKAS
Chain of Wee1 (P30291 whole entry, species assumed): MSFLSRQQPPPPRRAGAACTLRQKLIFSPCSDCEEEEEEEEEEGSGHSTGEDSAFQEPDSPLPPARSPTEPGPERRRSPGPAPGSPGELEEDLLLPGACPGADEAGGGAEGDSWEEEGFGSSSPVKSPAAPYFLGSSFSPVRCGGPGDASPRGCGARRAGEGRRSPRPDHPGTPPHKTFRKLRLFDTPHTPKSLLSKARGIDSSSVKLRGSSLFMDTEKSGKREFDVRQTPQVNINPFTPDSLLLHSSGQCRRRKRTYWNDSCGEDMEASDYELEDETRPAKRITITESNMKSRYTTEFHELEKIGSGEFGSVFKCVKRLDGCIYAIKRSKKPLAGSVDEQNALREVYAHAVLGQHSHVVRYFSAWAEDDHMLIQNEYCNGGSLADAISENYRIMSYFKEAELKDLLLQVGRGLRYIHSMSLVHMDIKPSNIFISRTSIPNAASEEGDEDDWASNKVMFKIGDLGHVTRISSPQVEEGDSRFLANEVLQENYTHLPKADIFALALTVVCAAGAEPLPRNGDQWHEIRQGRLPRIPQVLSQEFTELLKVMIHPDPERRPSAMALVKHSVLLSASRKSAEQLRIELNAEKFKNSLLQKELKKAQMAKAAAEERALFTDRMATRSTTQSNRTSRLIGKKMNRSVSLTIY

As to `COC1(C)CCc2ccc(Nc3nc(Nc4ccc(N5CCN(C)CC5)cc4)ncc3C#N)nc21` (centres unmarked) [Example 4, 4-[(7-methoxy-7-methyl-5,6-dihydrocyclopenta[b]pyridin-2-yl)amino]-2-[4-(4-methylpiperazin-1-yl)anilino]pyrimidine-5-carbonitrile], the IC50 against Wee1 is 250 to 500 nM; at PLK1, at most 100 nM.
For `CN1CC2CC1CN2c1ccc(Nc2ncc(C#N)c(Nc3cccc(N4CCCC4=O)n3)n2)cc1` (centres unmarked) [Example 70, 2-[4-(5-methyl-2,5-diazabicyclo[2.2.1]heptan-2-yl)anilino]-4-[[6-(2-oxopyrrolidin-1-yl)-2-pyridyl]amino]pyrimidine-5-carbonitrile], in that order: 250 to 500 nM and at most 100 nM.
For `CCCC1(O)CCc2ccc(Nc3nc(Nc4ccc(N5CCN(C)CC5)cc4)ncc3C#N)nc21` (centres unmarked) [Example 2, 4-[(7-hydroxy-7-propyl-5,6-dihydrocyclopenta[b]pyridin-2-yl)amino]-2-[4-(4-methylpiperazin-1-yl)anilino]pyrimidine-5-carbonitrile], in that order: at most 100 nM and at most 100 nM.
For `CCC1(O)CCc2ccc(Nc3nc(Nc4cc(F)c(C5CCN(C)CC5)c(F)c4)ncc3C#N)nc21` (centres unmarked) [Example 40, 2-[3,5-difluoro-4-(1-methyl-4-piperidyl)anilino]-4-[(7-ethyl-7-hydroxy-5,6-dihydrocyclopenta[b]pyridin-2-yl)amino]pyrimidine-5-carbonitrile], in that order: 500 to 1000 nM and above 1000 nM.
In the case of `CCC1(O)CCc2ccc(Nc3nc(Nc4ccc(C5CCN(C)CC5)c(F)c4)ncc3C#N)nc21` (centres unmarked) [Example 43, 4-[(7-ethyl-7-hydroxy-5,6-dihydrocyclopenta[b]pyridin-2-yl)amino]-2-[3-fluoro-4-(1-methyl-4-piperidyl)anilino]pyrimidine-5-carbonitrile], the concentration for half-maximal inhibition (IC50) against Wee1 and at PLK1 was 250 to 500 nM in each case.
Take `C[C@H]1CN(C)CCN1c1ccc(Nc2ncc(C#N)c(Nc3cccc(N4CCCC4=O)n3)n2)cc1` [Example 65, 4-[[6-(2-oxopyrrolidin-1-yl)-2-pyridyl]amino]-2-[4-[(2S)-2,4-dimethylpiperazin-1-yl]anilino]pyrimidine-5-carbonitrile]: the IC50 is 100 to 250 nM at Wee1 and above 1000 nM on PLK1.
For `CCC1(O)CCc2ccc(Nc3nc(Nc4ccc(N5CC6CCC5CN6C)cc4)ncc3C#N)nc21` (centres unmarked) [Example 24, 4-[(7-ethyl-7-hydroxy-5,6-dihydrocyclopenta[b]pyridin-2-yl)amino]-2-[4-(5-methyl-2,5-diazabicyclo[2.2.2]octan-2-yl)anilino]pyrimidine-5-carbonitrile], in that order: at most 100 nM and at most 100 nM.
For `CN1CCc2cc(Nc3ncc(C#N)c(Nc4cccc(N5CCOC5=O)n4)n3)cc(Cl)c2C1` [Example 13, 2-[(8-chloro-2-methyl-3,4-dihydro-1H-isoquinolin-6-yl)amino]-4-[[6-(2-oxooxazolidin-3-yl)-2-pyridyl]amino]pyrimidine-5-carbonitrile], the half-maximal inhibitory concentration (IC50) at Wee1 is at most 100 nM; on PLK1 it was above 1000 nM.
As for `CCC1(O)CCc2ccc(Nc3nc(Nc4ccc(C5CCN(C)CC5)c(Cl)c4)ncc3C#N)nc21` (centres unmarked) [Example 42, 2-[3-chloro-4-(1-methyl-4-piperidyl)anilino]-4-[(7-ethyl-7-hydroxy-5,6-dihydrocyclopenta[b]pyridin-2-yl)amino]pyrimidine-5-carbonitrile], the IC50 against Wee1 fell in the range of 250 to 500 nM; at PLK1, 100 to 250 nM.
For `CN1CC2CCC(C1)N2c1ccc(Nc2ncc(C#N)c(Nc3ccc4c(n3)C(C)(O)CC4)n2)cc1` (centres unmarked) [Example 57, 4-[(7-hydroxy-7-methyl-5,6-dihydrocyclopenta[b]pyridin-2-yl)amino]-2-[4-(3-methyl-3,8-diazabicyclo[3.2.1]octan-8-yl)anilino]pyrimidine-5-carbonitrile], the half-inhibitory concentration (IC50) at Wee1 is 250 to 500 nM; at PLK1 it was above 1000 nM.
For `CCC1(O)CCc2ccc(Nc3nc(Nc4ccc(N5CCN(C)CC5)c(C)c4)ncc3C#N)nc21` (centres unmarked) [Example 16, 4-[(7-ethyl-7-hydroxy-5,6-dihydrocyclopenta[b]pyridin-2-yl)amino]-2-[3-methyl-4-(4-methylpiperazin-1-yl)anilino]pyrimidine-5-carbonitrile], in that order: 100 to 250 nM and at most 100 nM.
On the same counts, the results for `CCC1(O)CCc2ccc(Nc3nc(Nc4ccc(C5CCN(CCO)CC5)c(C)c4)ncc3C#N)nc21` (centres unmarked) [Example 19, 4-[(7-ethyl-7-hydroxy-5,6-dihydrocyclopenta[b]pyridin-2-yl)amino]-2-[4-[1-(2-hydroxyethyl)-4-piperidyl]-3-methyl-anilino]pyrimidine-5-carbonitrile] are 250 to 500 nM and at most 100 nM.
For `CN1CCN(c2ccc(Nc3ncc(C#N)c(Nc4cccc(N5CCCC5=O)n4)n3)cc2)CC1` [Example 5, 2-[4-(4-methylpiperazin-1-yl)anilino]-4-[[6-(2-oxopyrrolidin-1-yl)-2-pyridyl]amino]pyrimidine-5-carbonitrile], the values for the IC50 against Wee1 and against PLK1 were 100 to 250 nM and 250 to 500 nM, respectively.
Turning to `CN1CCc2cc(Nc3ncc(C#N)c(Nc4cccc(N5CCCC5=O)n4)n3)ccc2C1` [Example 72, 2-[(2-methyl-3,4-dihydro-1H-isoquinolin-6-yl)amino]-4-[[6-(2-oxopyrrolidin-1-yl)-2-pyridyl]amino]pyrimidine-5-carbonitrile], the IC50 at Wee1 is at most 100 nM; on PLK1, above 1000 nM.
On to `COCc1cc(Nc2ncc(C#N)c(Nc3cccc(N4CCCC4=O)n3)n2)ccc1N1CCN(C)CC1` [Example 66, 2-[3-(methoxymethyl)-4-(4-methylpiperazin-1-yl)anilino]-4-[[6-(2-oxopyrrolidin-1-yl)-2-pyridyl]amino]pyrimidine-5-carbonitrile], for which the IC50 against Wee1 is 250 to 500 nM; at PLK1, above 1000 nM.
For `CCC1(O)CCc2ccc(Nc3nc(Nc4ccc5c(c4)CCN(C)C5(C)C)ncc3C#N)nc21` (single isomer, unassigned) [Example 28], in that order: 250 to 500 nM and above 1000 nM.
On to `CCC1(O)CCc2ccc(Nc3nc(Nc4ccc(N5C6CCC5CN(C)C6)cc4)ncc3C#N)nc21` (centres unmarked) [Example 36, 4-[(7-ethyl-7-hydroxy-5,6-dihydrocyclopenta[b]pyridin-2-yl)amino]-2-[4-(3-methyl-3,8-diazabicyclo[3.2.1]octan-8-yl)anilino]pyrimidine-5-carbonitrile], for which the concentration for half-maximal inhibition (IC50) was 250 to 500 nM against Wee1 and above 1000 nM against PLK1.
As for `C[C@@H]1CN(C)CCN1c1ccc(Nc2ncc(C#N)c(Nc3cccc(N4CCOC4=O)n3)n2)cc1` (racemic) [Example 10, 4-[[6-(2-oxooxazolidin-3-yl)-2-pyridyl]amino]-2-[4-[rac-(2R)-2,4-dimethylpiperazin-1-yl]anilino]pyrimidine-5-carbonitrile], the results for the half-inhibitory concentration (IC50) at Wee1 and at PLK1 were 100 to 250 nM and above 1000 nM, respectively.
As to `CCC1(O)CCc2ccc(Nc3nc(Nc4cc(C)c5c(c4)CCN(C)C5)ncc3C#N)nc21` (centres unmarked) [Example 47, 2-[(2,8-dimethyl-3,4-dihydro-1H-isoquinolin-6-yl)amino]-4-[(7-ethyl-7-hydroxy-5,6-dihydrocyclopenta[b]pyridin-2-yl)amino]pyrimidine-5-carbonitrile], the half-inhibitory concentration (IC50) was at most 100 nM at Wee1 and 250 to 500 nM against PLK1.

As a reminder, the IC50 is the concentration needed to halve the response being measured. A higher IC50 goes with a need for much substance.
